Reference: patent US10287255B2, “Compounds as histone deacetylase 6 inhibitors and pharmaceutical compositions comprising the same” (CHONG KUN DANG PHARMACEUTICAL CORP., priority 2014, dated 2019)
pIC50: −log10 of the molar value.

Legend:
human recombinant HDAC1 = target: T1, human recombinant HDAC1 (Homo sapiens, UniProt Q13547); experiment: HDAC1 enzyme activity inhibition assay (in vitro, fluorimetric); type: biochemical; conditions: human recombinant HDAC1, fluorimetric kit, 30° C. 60 minutes
T1 construct: purchased Enzo Life Science BML-SE456
Summary of the method: (§1)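 IC50 values derive from fluorescence (Ex 360, Em 460) after developer treatment (30 min) of reactions of recombinant human HDAC1 or HDAC6 with 10 μM Fluor de Lys-SIRT1 substrate (60 min, 30 °C). Compounds were serially diluted 5-fold; 0.3 μg enzyme was used for HDAC1, with HDAC6 tested identically.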

human recombinant HDAC6 = target: T2, human recombinant HDAC6 (Homo sapiens, UniProt Q9UBN7); experiment: HDAC6 enzyme activity inhibition assay (in vitro, fluorimetric); type: biochemical; conditions: for HDAC6 selectivity (fold): HDAC6 selectivity over HDAC1; for pIC50: human recombinant HDAC6, fluorimetric kit, same protocol as HDAC1
T2 construct: purchased Calbiochem 382180
T2 sequence (Q9UBN7 1-1215): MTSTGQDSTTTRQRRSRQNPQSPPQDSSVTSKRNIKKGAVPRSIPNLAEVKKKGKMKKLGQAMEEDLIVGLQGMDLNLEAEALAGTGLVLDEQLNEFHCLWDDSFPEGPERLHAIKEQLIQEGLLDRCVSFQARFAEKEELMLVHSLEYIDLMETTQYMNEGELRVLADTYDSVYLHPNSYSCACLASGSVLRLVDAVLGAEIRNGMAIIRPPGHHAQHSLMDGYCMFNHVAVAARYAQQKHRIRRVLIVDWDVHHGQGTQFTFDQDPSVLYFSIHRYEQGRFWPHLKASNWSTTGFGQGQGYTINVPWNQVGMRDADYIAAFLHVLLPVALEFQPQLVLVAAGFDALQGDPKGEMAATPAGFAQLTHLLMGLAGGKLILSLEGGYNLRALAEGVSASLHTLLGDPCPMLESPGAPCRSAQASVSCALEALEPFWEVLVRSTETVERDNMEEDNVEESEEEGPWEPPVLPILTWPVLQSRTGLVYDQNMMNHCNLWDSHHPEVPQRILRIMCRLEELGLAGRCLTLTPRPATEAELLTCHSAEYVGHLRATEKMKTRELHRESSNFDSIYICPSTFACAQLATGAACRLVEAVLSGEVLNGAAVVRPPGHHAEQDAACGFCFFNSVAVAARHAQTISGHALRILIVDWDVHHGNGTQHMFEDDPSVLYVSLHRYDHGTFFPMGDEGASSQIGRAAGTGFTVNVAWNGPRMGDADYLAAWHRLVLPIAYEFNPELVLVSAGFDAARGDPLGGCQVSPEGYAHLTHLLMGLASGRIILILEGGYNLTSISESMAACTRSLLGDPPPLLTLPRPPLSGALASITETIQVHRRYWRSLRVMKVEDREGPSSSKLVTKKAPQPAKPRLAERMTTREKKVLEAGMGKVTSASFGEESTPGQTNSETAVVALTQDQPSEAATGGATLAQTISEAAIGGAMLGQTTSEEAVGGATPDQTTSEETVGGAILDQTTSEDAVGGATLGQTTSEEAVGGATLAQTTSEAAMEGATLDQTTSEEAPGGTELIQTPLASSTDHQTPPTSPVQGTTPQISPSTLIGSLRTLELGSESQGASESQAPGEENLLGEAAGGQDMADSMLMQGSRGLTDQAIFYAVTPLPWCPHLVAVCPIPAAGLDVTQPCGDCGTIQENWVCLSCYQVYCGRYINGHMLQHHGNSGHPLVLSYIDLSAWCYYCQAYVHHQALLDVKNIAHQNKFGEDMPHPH
Summary of the method: as §1

T1 sequence (Q13547 whole entry): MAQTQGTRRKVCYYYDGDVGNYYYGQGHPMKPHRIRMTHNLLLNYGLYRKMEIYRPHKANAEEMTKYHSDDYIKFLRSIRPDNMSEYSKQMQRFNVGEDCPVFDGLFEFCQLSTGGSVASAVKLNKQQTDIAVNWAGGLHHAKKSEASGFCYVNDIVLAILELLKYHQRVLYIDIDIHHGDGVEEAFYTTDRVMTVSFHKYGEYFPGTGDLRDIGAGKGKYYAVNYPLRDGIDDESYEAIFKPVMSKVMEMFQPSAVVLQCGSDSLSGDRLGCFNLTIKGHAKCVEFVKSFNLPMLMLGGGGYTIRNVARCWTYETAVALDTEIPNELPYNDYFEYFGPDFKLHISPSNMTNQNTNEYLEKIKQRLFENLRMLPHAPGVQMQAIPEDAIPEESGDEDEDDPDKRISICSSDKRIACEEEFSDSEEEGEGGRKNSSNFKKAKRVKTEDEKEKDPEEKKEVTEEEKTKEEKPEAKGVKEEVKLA

| SMILES | pIC50 (human recombinant HDAC1) | HDAC6 selectivity (fold) (human recombinant HDAC6) | pIC50 (human recombinant HDAC6) |
| --- | --- | --- | --- |
| CC(=O)N1CCN(Cc2cccc(CN3[C@H](C)CN(Cc4ccc(C(=O)NO)cc4)C[C@@H]3C)c2)CC1 [Compound 431, 4-(((3R,5S)-4-(3-((4-acetylpiperazin-1-yl)methyl)benzyl)-3,5-dimethylpiperazin-1-yl)methyl)-N-hydroxybenzamide] | 4.87 | 611 | 7.66 |
| C[C@@H]1CN(Cc2ccc(C(=O)NO)cc2)C[C@H](C)N1C(=O)c1cccc(CN2CCN(CC(F)(F)F)CC2)c1 [Compound 443, 4-(((3R,5S)-3,5-dimethyl-4-(3-((4-(2,2,2-trifluoroethyl)piperazin-1-yl)methyl)benzoyl)piperazin-1-yl)methyl)-N-hydroxybenzamide] | 5.02 | 68 | 6.85 |
| C[C@@H]1CN(Cc2ccc(C(=O)NO)cc2)C[C@H](C)N1C(=O)c1ccc(CN2CCCC2)cc1 [Compound 461, 4-(((3R,5S)-3,5-dimethyl-4-(4-(pyrrolidin-1-ylmethyl)benzoyl)piperazin-1-yl)methyl)-N-hydroxybenzamide] | 5.38 | 18 | 6.62 |
| CC(C)NC(=O)N1[C@H](C)CN(Cc2ccc(C(=O)NO)cc2)C[C@@H]1C [Compound 098, (2S,6R)-4-(4-(hydroxycarbamoyl)benzyl)-N-isopropyl-2,6-dimethylpiperazine-1-carboxamide] | < 5.00 | >133 | 7.12 |
| CCCN1[C@H](C)CN(Cc2ccc(C(=O)NO)cc2)C[C@@H]1C [Compound 148, 4-(((3R,5S)-3,5-dimethyl-4-propylpiperazin-1-yl)methyl)-N-hydroxybenzamide] | 4.81 | 132 | 6.93 |
| C[C@@H]1CN(Cc2ccc(C(=O)NO)cc2)C[C@@H](C)N1Cc1ccccc1 [Compound 248, 4-(((3R,5R)-4-benzyl-3,5-dimethylpiperazin-1-yl)methyl)-N-hydroxybenzamide] | 5.07 | 96 | 7.05 |
| C[C@@H]1CN(C(=O)c2ccc(CCC(=O)NO)cc2)C[C@H](C)N1Cc1ccccc1 [Compound 824, 3-(4-((3R,5S)-4-benzyl-3,5-dimethylpiperazine-1-carbonyl)phenyl)-N-hydroxypropanamide] | 5.39 | 22 | 6.74 |
| C[C@@H]1CN(Cc2ccc(C(=O)NO)cc2)C[C@H](C)N1C(=O)C1CCCO1 (stereo partly drawn) [Compound 402, 4-(((3R,5S)-3,5-dimethyl-4-(tetrahydrofuran-2-carbonyl)piperazin-1-yl)methyl)-N-hydroxybenzamide] | 5.28 | 32 | 6.79 |
| C[C@@H]1CN(Cc2ccc(C(=O)NO)cc2)C[C@H](C)N1Cc1ccccc1C1=CCN(S(C)(=O)=O)CC1 [Compound 481, 4-(((3R,5S)-3,5-dimethyl-4-(2-(1-(methylsulfonyl)-1,2,3,6-tetrahydropyridin-4-yl)benzyl)piperazin-1-yl)methyl)-N-hydroxybenzamide] | 4.79 | 153 | 6.97 |
| CC(C)C(=O)N1[C@H](C)CN(Cc2ccc(C(=O)NO)cc2)C[C@@H]1C [Compound 296, N-hydroxy-4-(((3R,5S)-4-isobutyryl-3,5-dimethylpiperazin-1-yl)methyl)benzamide] | 5.16 | 34 | 6.69 |
| C[C@@H]1CN(Cc2ccccc2C2=CCC(C)(C)CC2)C[C@H](C)N1Cc1ccc(C(=O)NO)cc1 [Compound 352, 4-(((2S,6R)-4-((4′,4′-dimethyl-2′,3′,4′,5′-tetrahydro-[1,1′-biphenyl]-2-yl)methyl)-2,6-dimethylpiperazin-1-yl)methyl)-N-hydroxybenzamide] | 4.86 | >13 | 5.98 |
| C[C@@H]1CN(Cc2ccc(C(=O)NO)cc2)C[C@H](C)N1CCCC(F)(F)F [Compound 204, 4-(((3R,5S)-3,5-dimethyl-4-(4,4,4-trifluorobutyl)piperazin-1-yl)methyl)-N-hydroxybenzamide] | < 5.00 | >12 | 6.09 |
| C[C@@H]1CN(Cc2ccc(C(=O)NO)cc2)C[C@H](C)N1Cc1cccc(CN2CCCC2)c1 [Compound 427, 4-(((3R,5S)-3,5-dimethyl-4-(3-(pyrrolidin-1-ylmethyl)benzyl)piperazin-1-yl)methyl)-N-hydroxybenzamide] | 5.22 | 40 | 6.82 |
| CCCCN1C[C@@H](C)N(Cc2ccc(C(=O)NO)cc2)[C@@H](C)C1 [Compound 274, 4-(((2S,6R)-4-butyl-2,6-dimethylpiperazin-1-yl)methyl)-N-hydroxybenzamide] | 4.87 | 36 | 6.42 |

Molecules with a higher pIC50 (human recombinant HDAC1), results first:

| pIC50 (human recombinant HDAC1) | HDAC6 selectivity (fold) (human recombinant HDAC6) | pIC50 (human recombinant HDAC6) | SMILES |
| --- | --- | --- | --- |
| 6.30 | 4 | 6.87 | COc1cccc(NC(=O)N2C[C@@H](C)N(Cc3ccc(C(=O)NO)cc3)[C@@H](C)C2)c1 [Compound 164, (3R,5S)-4-(4-(hydroxycarbamoyl)benzyl)-N-(3-methoxyphenyl)-3,5-dimethylpiperazine-1-carboxamide] |
| 5.44 | 3 | 5.95 | C[C@@H]1CN(Cc2ccc(-c3cccs3)cc2)C[C@H](C)N1Cc1ccc(C(=O)NO)cc1 [Compound 302, 4-(((2S,6R)-2,6-dimethyl-4-(4-(thiophen-2-yl)benzyl)piperazin-1-yl)methyl)-N-hydroxybenzamide] |
| 5.77 | 3 | 6.28 | C[C@@H]1CN(C(=O)c2cccc(-c3ccncc3)c2)C[C@H](C)N1Cc1ccc(C(=O)NO)cc1 [Compound 260, 4-(((2S,6R)-2,6-dimethyl-4-(3-(pyridin-4-yl)benzoyl)piperazin-1-yl)methyl)-N-hydroxybenzamide] |
| 5.80 | 6 | 6.59 | C[C@@H]1CN(C(=O)c2cccc(-c3ccco3)c2)C[C@H](C)N1Cc1ccc(C(=O)NO)cc1 [Compound 257, 4-(((2S,6R)-4-(3-(furan-2-yl)benzoyl)-2,6-dimethylpiperazin-1-yl)methyl)-N-hydroxybenzamide] |
| 5.70 | 3 | 6.24 | C[C@@H]1CN(C(=O)c2cccc(-c3cccnc3)c2)C[C@H](C)N1Cc1ccc(C(=O)NO)cc1 [Compound 261, 4-(((2S,6R)-2,6-dimethyl-4-(3-(pyridin-3-yl)benzoyl)piperazin-1-yl)methyl)-N-hydroxybenzamide] |
| 6.15 | 35 | 7.72 | C[C@@H]1CN(Cc2ccc(C(=O)NO)cc2)C[C@H](C)N1Cc1ccc(CN2CCCC2)cc1 [Compound 466, 4-(((3R,5S)-3,5-dimethyl-4-(4-(pyrrolidin-1-ylmethyl)benzyl)piperazin-1-yl)methyl)-N-hydroxybenzamide] |
| 5.55 | 27 | 6.98 | C[C@@H]1CN(S(=O)(=O)c2cccnc2)C[C@H](C)N1Cc1ccc(C(=O)NO)cc1 [Compound 113, 4-(((2S,6R)-2,6-dimethyl-4-(pyridin-3-ylsulfonyl)piperazin-1-yl)methyl)-N-hydroxybenzamide] |
| 5.42 | 33 | 6.94 | C[C@@H]1CN(Cc2ccc(C(=O)NO)cc2)C[C@H](C)N1Cc1cccc(C(=O)N2CCOCC2)c1 [Compound 446, 4-(((3R,5S)-3,5-dimethyl-4-(3-(morpholine-4-carbonyl)benzyl)piperazin-1-yl)methyl)-N-hydroxybenzamide] |
| 5.55 | 11 | 6.60 | C[C@@H]1CN(Cc2ccc(-n3ccnc3)cc2)C[C@H](C)N1Cc1ccc(C(=O)NO)cc1 [Compound 301, 4-(((2S,6R)-4-(4-(1H-imidazol-1-yl)benzyl)-2,6-dimethylpiperazin-1-yl)methyl)-N-hydroxybenzamide] |
